The record followed here is patent US9481654B2, “Compositions and methods for inhibition of the JAK pathway” (Rigel Pharmaceuticals, Inc., priority 2006, dated 2016).

Molecules are shown by their SMILES.

A word on the IC50: it is the concentration that inhibits the measured activity by half. Low readings indicate greater potency in that assay, high ones weaker potency in that assay.

Holding throughout (assay type): cell-based
In assay [1] the test system is IL-4 stimulated CD23 upregulation in human Ramos B cells (JAK-1/JAK-3, Stat-6). The assay is described as follows: Assay for Ramos B-Cell Line Stimulated with IL-4 (CD23 upregulation, FACS). As to conditions: Table III Example 3. The method in brief:
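Log-phase Ramos B cells (5×10^4 per point, RPMI with 5% serum) pre-incubated with compound or DMSO 1 h at 37° C, then stimulated with IL-4 at 50 units/mL final for 20-24 h. CD23 upregulation measured by staining and flow cytometry.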

Assay [2] has as its system primary human T-cells (IL-2 induced proliferation, JAK-1/JAK-3, Stat-5). The assay is described as follows: Primary Human T-Cell Proliferation Assay Stimulated with IL-2 (CellTiter-Glo). Conditions: Table III Example 4. On the procedure:
In this assay, primary human T-cells derived from peripheral blood and pre-activated through stimulation of the T-cell receptor and CD28, proliferate in culture in response to the cytokine Interleukin-2 (IL-2). This proliferative response is dependent on the activation of JAK1 and JAK3 tyrosine kinases, which phosphorylate and activate the transcription factor Stat-5. The primary human T-cells are incubated with the 2,4-pyrimidinediamine compounds in the presence of IL-2 for 72 hours, and at the assay endpoint intracellular ATP concentrations are measured to assess cell viability. A reduction in cell proliferation compared to control conditions is indicative of inhibition of the JAK kinase pathway.
Primary human T-cells derived from peripheral blood and pre-activated through stimulation of the T-cell receptor and CD28 proliferate in vitro in response to the cytokine Interleukin-2 (IL-2). This proliferative response is dependent on the activation of JAK-1 and JAK-3 tyrosine kinases, which phosphorylate and activate the transcription factor Stat-5.
Human primary T cells were prepared as follows. […] The lymphocytes at the serum: ficoll interface were recovered and washed twice with 5 volumes of PBS. […] The primary T-cells were stimulated for 3 to 4 days, then transferred to a fresh flask and maintained in RPMI with 10% FBS and 40 U/mL IL-2.
Primary T-cells were washed twice with PBS to remove the IL-2 and resuspended in Yssel's medium at 2×10^6 cells/mL. 50 μL of cell suspension containing 80 U/mL IL-2 was added to each well of a flat bottom 96 well black plate. For the unstimulated control, IL-2 was omitted from the last column on the plate. […] 50 μL of 2× compound was added per well in duplicate and the cells were allowed to proliferate for 72 hours at 37° C.
Proliferation was measured using CellTiter-Glo® Luminescent Cell Viability Assay (Promega), which determines the number of viable cells in culture based on quantitation of the ATP present, as an indicator of metabolically active cells. The substrate was thawed and allowed to come to room temperature. After mixing the Cell Titer-Glo reagent and diluent together, 100 μL was added to each well. The plates were mixed on an orbital shaker for two minutes to induce lysis and incubated at room temperature for an additional ten minutes to allow the signal to equilibrate.
(In general: In ATP-based viability assays light output follows the ATP content of the culture.)

Assay [3] concerns IFNγ induced ICAM-1 (CD54) up-regulation in U937 human monocytic cells (JAK/Stat pathway). The assay is described as follows: U937 IFNγ ICAM1 FACS Assay. Conditions: Table III Example 6, 10 ng/mL IFNγ, 18-24 hours. The source says:
A549 lung epithelial cells and U937 cells up-regulate ICAM-1 (CD54) surface expression in response to a variety of different stimuli. Therefore, using ICAM-1 expression as readout, test compound effects on different signaling pathways can be assessed in the same cell type. Stimulation with IL-1β through the IL-1β receptor activates the TRAF6/NFκB pathway resulting in up-regulation of ICAM-1. IFNγ induces ICAM-1 up-regulation through activation of the JAK1/JAK2 pathway. The up-regulation of ICAM-1 can be quantified by flow cytometry across a compound dose curve and EC50 values are calculated. Exemplary assays of this type are described in greater detail in Examples 5 and 6. U937 human monocytic cells up-regulate ICAM-1 (CD54) surface expression in response to a variety of different stimuli. Therefore, using ICAM-1 expression as readout, compound effects on different signaling pathways can be assessed in the same cell type. IFNγ up-regulates ICAM-1 through activation of the JAK/Stat pathway. In this example, the up-regulation of ICAM-1 by IFNγ was assessed. […] The cells were then plated at a concentration of 100,000 cells per 160 μL in 96 well flat bottom plates. The test compounds were then diluted as follows: 10 mM test compound was diluted 1:5 in DMSO (3 μL 10 mM test compound in 12 μL DMSO), followed by a 1:3 serial dilution of test compound in DMSO (6 μL test compound serially diluted into 12 μL DMSO to give 3-fold dilutions). […] For control wells, 4 μL of DMSO was diluted into 76 μL 10% RPMI. […] The cells and compounds were then pre-incubated for 30 minutes at 37° C. with 5% CO2. […] The cells were kept under conditions for stimulation for 18-24 hours at 37° C. with 5% CO2. […] Cells were spun down at 1000 rpm for 5 minutes at 4° C., following which the supernatant was removed. […] The cells were then incubated on ice in the dark for 30 minutes. […] After suspension, the cells were centrifuged at 1000 rpm for 5 min at 4° C. […] Detection was performed using a BD LSR I System Flow Cytometer, purchased from BD Biosciences of San Jose, Calif. The live cells were gated for live scatter and the geometric mean of ICAM-APC was measured (Becton-Dickinson CellQuest software version 3.3, Franklin Lakes, N.J.). Both % live cells and ICAM-1 expression was analyzed. The assays for the test compounds were carried out in parallel with a control compound of known activity.

In the case of `C#CCNS(=O)(=O)Cc1cccc(Nc2nc(Nc3cccc(S(N)(=O)=O)c3)ncc2F)c1` [Compound I-3, N2-(3-Aminosulfonylphenyl)-5-fluoro-N4-[3-(prop-2-ynylaminosulfonylmethyl)phenyl]-2,4-pyrimidinediamine], the concentration for half-maximal inhibition (IC50) in assay [1] (Homo sapiens, Ramos) was determined as 227 nM; in assay [2] (Homo sapiens, T-cell), 458 nM; in assay [3] (Homo sapiens, U-937) it was 4530 nM.
`CCS(=O)(=O)NCc1ccc(Nc2nc(Nc3ccc(S(N)(=O)=O)cc3)ncc2F)cc1` [Compound I-8, N2-(4-aminosulfonyl)phenyl-N4-(4-ethylsulfonylaminomethyl)phenyl-5-fluoro-2,4-pyrimidinediamine]: the values for the IC50 in assay [1], in assay [2] and in assay [3] were 235 nM, 275 nM and 3250 nM, respectively.
Taken in the same sequence, the figures for `CCS(=O)(=O)NCc1ccc(Nc2nc(Nc3cccc(S(N)(=O)=O)c3)ncc2F)cc1` [Compound I-9, N2-(3-aminosulfonyl)phenyl-N4-(4-ethylsulfonylaminomethyl)phenyl-5-fluoro-2,4-pyrimidinediamine] were 80.1 nM, 70.2 nM and 993 nM.
Take `CCS(=O)(=O)NCc1cccc(Nc2nc(Nc3ccc(S(N)(=O)=O)cc3)ncc2F)c1` [Compound I-11, N2-(4-aminosulfonyl)phenyl-N4-(3-ethylsulfonylaminomethyl)phenyl-5-fluoro-2,4-pyrimidinediamine]: the half-maximal inhibitory concentration (IC50) in assay [1] stood at 250 nM; in assay [2], 588 nM; in assay [3], 2790 nM.
Taken in the same sequence, the figures for `CCS(=O)(=O)NCCc1ccc(Nc2nc(Nc3ccc(S(N)(=O)=O)cc3)ncc2F)cc1` [Compound I-14, N2-(4-aminosulfonyl)phenyl-N4-[4-(2-ethylsulfonylamino)ethyl]phenyl-5-fluoro-2,4-pyrimidinediamine] were 144 nM, 835 nM and 5270 nM.
On to `CCS(=O)(=O)NCCc1ccc(Nc2nc(Nc3cccc(S(N)(=O)=O)c3)ncc2F)cc1` [Compound I-15, N2-(3-aminosulfonyl)phenyl-N4-[4-(2-ethylsulfonylamino)ethyl]phenyl-5-fluoro-2,4-pyrimidinediamine], for which the results for the IC50 in assay [1], in assay [2] and in assay [3] were 65.8 nM, 184 nM and 3110 nM, respectively.
With `CCCN(Cc1ccc(Nc2nc(Nc3cccc(S(N)(=O)=O)c3)ncc2F)cc1)S(=O)(=O)CC` [Compound I-18, N2-(3-aminosulfonyl)phenyl-N4-[4-(N-ethylsulfonyl-N-propylamino)methyl]phenyl-5-fluoro-2,4-pyrimidinediamine], the IC50 in assay [1] turned out to be 107 nM; in assay [2] it was 272 nM; in assay [3], 1290 nM.
Taken in the same sequence, the figures for `CCCN(Cc1ccc(Nc2nc(Nc3ccc(C)c(S(N)(=O)=O)c3)ncc2F)cc1)S(=O)(=O)CC` [Compound I-19, N2-(3-aminosulfonyl-4-methyl)phenyl-N4-[4-(N-ethylsulfonyl-N-propylamino)methyl]phenyl-5-fluoro-2,4-pyrimidinediamine] were 148 nM, 494 nM and 1640 nM.
Taken in the same sequence, the figures for `CCS(=O)(=O)NCc1ccc(Nc2nc(Nc3ccc(S(N)(=O)=O)cc3)ncc2C)cc1` [Compound I-20, N2-(4-aminosulfonyl)phenyl-N4-(4-ethylsulfonylaminomethyl)phenyl-5-methyl-2,4-pyrimidinediamine] were 73.6 nM, 46.1 nM and 621 nM.
Taken in the same sequence, the figures for `CCS(=O)(=O)NCc1ccc(Nc2nc(Nc3ccc(C)c(S(N)(=O)=O)c3)ncc2C)cc1` [Compound I-22, N2-(3-aminosulfonyl-4-methyl)phenyl-N4-(4-ethylsulfonylaminomethyl)phenyl-5-methyl-2,4-pyrimidinediamine] were 25.9 nM, 82.2 nM and 207 nM.
Consider `NS(=O)(=O)c1ccc(Nc2ncc(F)c(Nc3ccc(CNS(=O)(=O)C4CC4)cc3)n2)cc1` [Compound I-23, N2-(4-aminosulfonyl)phenyl-N4-(4-cyclopropylsulfonylaminomethyl)phenyl-5-fluoro-2,4-pyrimidinediamine], for which the figures for the IC50 in assay [1], in assay [2] and in assay [3] were 126 nM, 198 nM and 3850 nM, respectively.
As to `NS(=O)(=O)c1cccc(Nc2ncc(F)c(Nc3ccc(CNS(=O)(=O)C4CC4)cc3)n2)c1` [Compound I-24, N2-(3-aminosulfonyl)phenyl-N4-(4-cyclopropylsulfonylaminomethyl)phenyl-5-fluoro-2,4-pyrimidinediamine], the half-inhibitory concentration (IC50) in assay [1] came out at 59.2 nM; in assay [2], 32 nM; in assay [3], 508 nM.
Taken in the same sequence, the figures for `Cc1ccc(Nc2ncc(F)c(Nc3ccc(CNS(=O)(=O)C4CC4)cc3)n2)cc1S(N)(=O)=O` [Compound I-25, N2-(3-aminosulfonyl-4-methyl)phenyl-N4-(4-cyclopropylsulfonylaminomethyl)phenyl-5-fluoro-2,4-pyrimidinediamine] were 69 nM, 63.9 nM and 363 nM.
Taken in the same sequence, the figures for `CCS(=O)(=O)N[C@@H](C)c1ccc(Nc2nc(Nc3ccc(C)c(S(N)(=O)=O)c3)ncc2F)cc1` [Compound I-28, N2-(3-aminosulfonyl-4-methyl)phenyl-N4-[4-(1S-ethylsulfonylamino)ethyl]phenyl-5-fluoro-2,4-pyrimidinediamine] were 115 nM, 376 nM and 1110 nM.
`CCS(=O)(=O)N[C@H](C)c1ccc(Nc2nc(Nc3ccc(C)c(S(N)(=O)=O)c3)ncc2F)cc1` [Compound I-31, N2-(3-aminosulfonyl-4-methyl)phenyl-N4-[4-(1R-ethylsulfonylamino)ethyl]phenyl-5-fluoro-2,4-pyrimidinediamine]: the IC50 in assay [1] amounted to 104 nM; in assay [2], 283 nM; in assay [3], 1020 nM.
In the case of `NS(=O)(=O)c1cccc(Nc2ncc(F)c(Nc3cccc(CNS(=O)(=O)C4CC4)c3)n2)c1` [Compound I-33, N2-(3-aminosulfonyl)phenyl-N4-(3-cyclopropylsulfonylaminomethyl)phenyl-5-fluoro-2,4-pyrimidinediamine], the IC50 in assay [1] is 102 nM; in assay [2], 314 nM; in assay [3] it was 1410 nM.
As to `Cc1cnc(Nc2ccc(S(=O)(=O)Nc3cccnc3)cc2)nc1Nc1ccc(CNS(=O)(=O)C2CC2)cc1` [Compound I-171, N4-(4-cyclopropylsulfonylaminomethyl)phenyl-5-methyl-N2-[4-(3-pyridyl)aminosulfonyl]phenyl-2,4-pyrimidinediamine], the figures for the IC50 in assay [1] and in assay [2] were 19500 nM and 42300 nM, respectively.
